In patent US20140005163A1 (NOVARTIS AG, priority 2010, published 2014):

Assays:
[1] = test system: PKB Ser473 phosphorylation in Rat1-myr-HA-p110 beta cells; test: Reverse protein array assay, PKB Ser473 phosphorylation in Rat1-myr-p110 beta cells; format: cell-based; details: 0.5 h, pAkt Ser473, 30 minutes incubation, read-out: p-PKB IC50
Method in brief: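 Cells: Rat1-myr-HA-p110 alpha/beta/delta, seeded ≥20 h. Lysis on ice 10 min; reverse-phase protein array, 4 lysate dilutions; fluorescence read, relative intensity.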

[2] = target: T1, mTOR (Homo sapiens, UniProt P42345); test: Biochemical assay for m-TOR by TR-FRET; details: 8 μM ATP, 400 nM GFP-4EBP1, 0.5 nM mTOR
T1 construct: purchased Invitrogen Corporation (Carlsbad/CA, USA) PV4753
T1 sequence (P42345 1360-2549 limits assumed): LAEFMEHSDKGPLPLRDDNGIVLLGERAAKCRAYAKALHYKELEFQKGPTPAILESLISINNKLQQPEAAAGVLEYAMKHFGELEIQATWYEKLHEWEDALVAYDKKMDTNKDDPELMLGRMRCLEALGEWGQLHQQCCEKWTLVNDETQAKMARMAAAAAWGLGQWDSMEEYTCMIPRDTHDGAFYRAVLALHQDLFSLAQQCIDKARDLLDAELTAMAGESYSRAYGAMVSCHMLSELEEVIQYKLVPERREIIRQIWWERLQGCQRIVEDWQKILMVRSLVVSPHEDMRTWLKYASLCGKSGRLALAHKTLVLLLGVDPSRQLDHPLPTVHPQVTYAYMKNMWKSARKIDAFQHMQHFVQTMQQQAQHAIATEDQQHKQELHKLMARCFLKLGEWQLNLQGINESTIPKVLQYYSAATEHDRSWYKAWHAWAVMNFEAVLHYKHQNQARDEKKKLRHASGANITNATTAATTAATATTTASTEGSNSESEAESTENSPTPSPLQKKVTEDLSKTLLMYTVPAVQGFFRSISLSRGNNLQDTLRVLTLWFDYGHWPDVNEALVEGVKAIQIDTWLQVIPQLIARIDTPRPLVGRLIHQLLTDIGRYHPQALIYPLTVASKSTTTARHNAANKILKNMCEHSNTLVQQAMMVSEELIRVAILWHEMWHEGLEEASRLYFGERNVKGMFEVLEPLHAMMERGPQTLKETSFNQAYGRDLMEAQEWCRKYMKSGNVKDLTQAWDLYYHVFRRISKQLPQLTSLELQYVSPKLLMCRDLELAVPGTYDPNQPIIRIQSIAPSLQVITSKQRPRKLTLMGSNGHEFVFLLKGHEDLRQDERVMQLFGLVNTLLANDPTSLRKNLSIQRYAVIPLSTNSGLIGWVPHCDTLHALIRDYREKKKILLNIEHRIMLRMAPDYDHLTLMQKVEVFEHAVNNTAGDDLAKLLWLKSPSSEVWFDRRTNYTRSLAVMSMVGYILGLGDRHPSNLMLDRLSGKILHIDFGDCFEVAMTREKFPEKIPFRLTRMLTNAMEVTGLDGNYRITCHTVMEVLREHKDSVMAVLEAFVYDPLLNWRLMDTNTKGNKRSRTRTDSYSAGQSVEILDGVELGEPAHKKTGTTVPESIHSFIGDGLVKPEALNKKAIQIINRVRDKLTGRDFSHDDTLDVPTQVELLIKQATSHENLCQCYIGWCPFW
Method in brief: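 mTOR (0.5 nM final) phosphorylated GFP-4EBP1 (400 nM final) with ATP (8 μM final) at rt in 50 mM HEPES pH 7.5, 10 mM MnCl2, 50 mM NaCl, 1 mM EGTA, 1 mM DTT. EDTA stop with Tb3+-anti-p4EBP1 [pThr46] antibody (0.5 nM); TR-FRET read 15 min later.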

[3] = target: T2, PI3K beta (Homo sapiens, UniProt P42338); test: PI3K beta kinase assay (Kinase-Glo luminescence); format: biochemical
T2 construct: for the full-length p110-b subunit are generated and fused by overlapping PCR; p85(iSH2) fusion partner (see partner chain) (N); His tag (C); made in house; host or cells: baculovirus; Tn5 (Trichoplusia ni) or TiniPro insect cells
T2 sequence (P42338 with tags, fused parts or gaps limits assumed): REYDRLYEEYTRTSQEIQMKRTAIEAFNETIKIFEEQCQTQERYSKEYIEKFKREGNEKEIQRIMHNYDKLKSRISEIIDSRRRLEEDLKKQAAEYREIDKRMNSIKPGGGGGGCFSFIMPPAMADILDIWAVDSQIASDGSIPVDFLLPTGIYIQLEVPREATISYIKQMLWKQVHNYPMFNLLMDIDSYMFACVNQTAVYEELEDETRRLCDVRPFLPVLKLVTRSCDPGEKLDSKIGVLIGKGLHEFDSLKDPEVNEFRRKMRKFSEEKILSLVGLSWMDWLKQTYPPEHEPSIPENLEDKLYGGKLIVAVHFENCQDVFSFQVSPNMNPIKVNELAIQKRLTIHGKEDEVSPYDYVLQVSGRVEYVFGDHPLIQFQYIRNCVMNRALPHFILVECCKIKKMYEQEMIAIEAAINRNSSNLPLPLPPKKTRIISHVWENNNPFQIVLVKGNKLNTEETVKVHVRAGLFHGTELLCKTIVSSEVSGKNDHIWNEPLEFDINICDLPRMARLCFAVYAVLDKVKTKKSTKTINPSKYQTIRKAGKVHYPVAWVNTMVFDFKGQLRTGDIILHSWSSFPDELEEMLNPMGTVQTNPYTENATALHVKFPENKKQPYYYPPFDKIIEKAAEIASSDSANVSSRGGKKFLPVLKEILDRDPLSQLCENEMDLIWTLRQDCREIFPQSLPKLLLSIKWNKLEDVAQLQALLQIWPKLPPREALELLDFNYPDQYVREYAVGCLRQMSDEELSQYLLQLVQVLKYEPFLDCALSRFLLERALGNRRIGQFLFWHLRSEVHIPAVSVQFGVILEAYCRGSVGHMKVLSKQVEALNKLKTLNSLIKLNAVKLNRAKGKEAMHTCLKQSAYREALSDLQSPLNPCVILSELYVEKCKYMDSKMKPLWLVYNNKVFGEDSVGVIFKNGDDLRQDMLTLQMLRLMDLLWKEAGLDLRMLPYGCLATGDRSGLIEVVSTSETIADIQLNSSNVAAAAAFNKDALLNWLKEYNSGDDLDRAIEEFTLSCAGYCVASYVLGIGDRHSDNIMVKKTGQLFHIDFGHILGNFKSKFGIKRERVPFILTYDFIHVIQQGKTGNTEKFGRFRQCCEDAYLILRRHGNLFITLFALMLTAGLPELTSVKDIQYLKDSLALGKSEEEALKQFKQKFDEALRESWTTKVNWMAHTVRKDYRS
Method in brief: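 Full-length p110β with a Gly-linked p85 iSH2 and a C-terminal His tag (BV949, 25 nM) was incubated with 10 μg/mL phosphatidylinositol and 1 μM ATP in 10 mM Tris pH 7.5, 3 mM MgCl2, 50 mM NaCl, 0.05% CHAPS, 1 mM DTT for 60 min at room temperature. Residual ATP was read by Kinase-Glo luminescence.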

SMILES	IC50 [1]	IC50 [2]	IC50 [3]
CCOc1cc(-c2ccc3ncc4c(c3c2)n(-c2cn(C)nc2C)c(=O)n4C)ccn1 [Example 91, 1-(1,3-Dimethyl-1H-pyrazol-4-yl)-8-(2-ethoxy-pyridin-4-yl)-3-methyl-1,3-dihydro-imidazo[4,5-c]quinolin-2-one]	391 nM	512 nM	409 nM
COc1ccc(-c2ccc3ncc4c(c3c2)n(-c2cn(CCO)nc2C)c(=O)n4C)cn1 [Example 103.1, 1-[1-(2-Hydroxy-ethyl)-3-methyl-1H-pyrazol-4-yl]-8-(6-methoxy-pyridin-3-yl)-3-methyl-1,3-dihydro-imidazo[4,5-c]quinolin-2-one]	30 nM	21 nM	101 nM
CCOc1ccc(-c2ccc3ncc4c(c3c2)n(-c2cn(CCO)nc2C)c(=O)n4C)cn1 [Example 103.2, 8-(6-Ethoxy-pyridin-3-yl)-1-[1-(2-hydroxy-ethyl)-3-methyl-1H-pyrazol-4-yl]-3-methyl-1,3-dihydro-imidazo[4,5-c]quinolin-2-one]	14 nM	22 nM	332 nM
CCOc1ccc(-c2ccc3ncc4c(c3c2)n(-c2cn(CC(=O)N3CCC3)nc2C)c(=O)n4C)cn1 [Example 138, 1-[1-(2-Azetidin-1-yl-2-oxo-ethyl)-3-methyl-1H-pyrazol-4-yl]-8-(6-ethoxy-pyridin-3-yl)-3-methyl-1,3-dihydro-imidazo[4,5-c]quinolin-2-one]	38 nM	10 nM	377 nM
CNc1ncc(-c2ccc3ncc4c(c3c2)n(-c2cn(C)nc2C)c(=O)n4C)cc1C(F)(F)F [Example 144.3, 1-(1,3-Dimethyl-1H-pyrazol-4-yl)-3-methyl-8-(6-methylamino-5-trifluoromethyl-pyridin-3-yl)-1,3-dihydro-imidazo[4,5-c]quinolin-2-one]	< 5 nM	3 nM	16 nM
CNc1ncc(-c2ccc3ncc4c(c3c2)n(-c2cn(C)nc2C)c(=O)n4C)cc1Cl [Example 146.1, 8-(5-Chloro-6-methylamino-pyridin-3-yl)-1-(1,3-dimethyl-1H-pyrazol-4-yl)-3-methyl-1,3-dihydro-imidazo[4,5-c]quinolin-2-one]	9 nM	< 3 nM	45 nM
CCn1cc(-n2c(=O)n(C)c3cnc4ccc(-c5cnc(NC)c(Cl)c5)cc4c32)c(C)n1 [Example 146.2, 8-(5-Chloro-6-methylamino-pyridin-3-yl)-1-(1-ethyl-3-methyl-1H-pyrazol-4-yl)-3-methyl-1,3-dihydro-imidazo[4,5-c]quinolin-2-one]	11 nM	20 nM	66 nM
Cc1nn(C(C)C)cc1-n1c(=O)n(C)c2cnc3ccc(-c4cnc(F)c(N)c4)cc3c21 [Example 149.1, 8-(5-Amino-6-fluoro-pyridin-3-yl)-1-(1-isopropyl-3-methyl-1H-pyrazol-4-yl)-3-methyl-1,3-dihydro-imidazo[4,5-c]quinolin-2-one]	66 nM	79 nM	68 nM
Cc1nn(C)cc1-n1c(=O)n(C)c2cnc3ccc(-c4cnc(F)c(N)c4)cc3c21 [Example 149.2, 8-(5-Amino-6-fluoro-pyridin-3-yl)-1-(1,3-dimethyl-1H-pyrazol-4-yl)-3-methyl-1,3-dihydro-imidazo[4,5-c]quinolin-2-one]	68 nM	39 nM	12 nM
CCn1cc(-n2c(=O)n(C)c3cnc4ccc(-c5cnc(F)c(NC)c5)cc4c32)c(C)n1 [Example 150.1, 1-(1-Ethyl-3-methyl-1H-pyrazol-4-yl)-8-(6-fluoro-5-methylamino-pyridin-3-yl)-3-methyl-1,3-dihydro-imidazo[4,5-c]quinolin-2-one]	11 nM	17 nM	17 nM
CCNc1cc(-c2ccc3ncc4c(c3c2)n(-c2c(C)nn(C)c2C)c(=O)n4C)cnc1Cl [Example 153.1, 8-(6-Chloro-5-ethylamino-pyridin-3-yl)-3-methyl-1-(1,3,5-trimethyl-1H-pyrazol-4-yl)-1,3-dihydro-imidazo[4,5-c]quinolin-2-one]	17 nM	98 nM	14 nM
CCNc1cc(-c2ccc3ncc4c(c3c2)n(-c2cn(C(C)C)nc2C)c(=O)n4C)cnc1CO [Example 155.3, 8-(5-Ethylamino-6-hydroxymethyl-pyridin-3-yl)-1-(1-isopropyl-3-methyl-1H-pyrazol-4-yl)-3-methyl-1,3-dihydro-imidazo[4,5-c]quinolin-2-one]	< 5 nM	5 nM	46 nM
CCNc1cc(-c2ccc3ncc4c(c3c2)n(-c2c(C)nn(C)c2C)c(=O)n4C)cnc1CO [Example 155.4, 8-(5-Ethylamino-6-hydroxymethyl-pyridin-3-yl)-3-methyl-1-(1,3,5-trimethyl-1H-pyrazol-4-yl)-1,3-dihydro-imidazo[4,5-c]quinolin-2-one]	47 nM	22 nM	55 nM
CCNc1cc(-c2ccc3ncc4c(c3c2)n(-c2cn(CC)nc2C)c(=O)n4C)cnc1COC [Example 157, 8-(5-Ethylamino-6-methoxymethyl-pyridin-3-yl)-1-(1-ethyl-3-methyl-1H-pyrazol-4-yl)-3-methyl-1,3-dihydro-imidazo[4,5-c]quinolin-2-one]	8 nM	10 nM	28 nM
CNc1cc(-c2ccc3ncc4c(c3c2)n(-c2cn(C)nc2C)c(=O)n4C)cnc1COC [Example 159, 1-(1,3-Dimethyl-1H-pyrazol-4-yl)-8-(6-methoxymethyl-5-methylamino-pyridin-3-yl)-3-methyl-1,3-dihydro-imidazo[4,5-c]quinolin-2-one]	8 nM	12 nM	100 nM
CCNc1cc(-c2ccc3ncc4c(c3c2)n(-c2cn(C)nc2C)c(=O)n4C)cnc1CC [Example 161, 1-(1,3-Dimethyl-1H-pyrazol-4-yl)-8-(6-ethyl-5-ethylamino-pyridin-3-yl)-3-methyl-1,3-dihydro-imidazo[4,5-c]quinolin-2-one]	< 5 nM	< 3 nM	18 nM
CCc1ncc(-c2ccc3ncc4c(c3c2)n(-c2cn(C)nc2C)c(=O)n4C)cc1NC(C)C [Example 162, 1-(1,3-Dimethyl-1H-pyrazol-4-yl)-8-(6-ethyl-5-isopropylamino-pyridin-3-yl)-3-methyl-1,3-dihydro-imidazo[4,5-c]quinolin-2-one]	< 5 nM	3 nM	20 nM
CCOCc1cc(-c2ccc3ncc4c(c3c2)n(-c2cn(C)nc2C)c(=O)n4C)cnc1N [Example 166.1, 8-(6-Amino-5-ethoxymethyl-pyridin-3-yl)-1-(1,3-dimethyl-1H-pyrazol-4-yl)-3-methyl-1,3-dihydro-imidazo[4,5-c]quinolin-2-one]	54 nM	33 nM	37 nM
Cn1cc(-n2c(=O)n(C)c3cnc4ccc(-c5cnc(N)c(CO)c5)cc4c32)c(Cl)n1 [Example 169.3, 8-(6-Amino-5-hydroxymethyl-pyridin-3-yl)-1-(3-chloro-1-methyl-1H-pyrazol-4-yl)-3-methyl-1,3-dihydro-imidazo[4,5-c]quinolin-2-one]	24 nM	< 3 nM	7 nM
Cc1nn(CCO)cc1-n1c(=O)n(C)c2cnc3ccc(-c4cncc(N5CCOCC5)c4)cc3c21 [Example 175.3, 1-[1-(2-Hydroxy-ethyl)-3-methyl-1H-pyrazol-4-yl]-3-methyl-8-(5-morpholin-4-yl-pyridin-3-yl)-1,3-dihydro-imidazo[4,5-c]quinolin-2-one]	692 nM	19 nM	559 nM
CCN(C)c1cncc(-c2ccc3ncc4c(c3c2)n(-c2cn(C)nc2C)c(=O)n4C)c1 [Example 176, 1-(1,3-Dimethyl-1H-pyrazol-4-yl)-8-[5-(ethyl-methyl-amino)-pyridin-3-yl]-3-methyl-1,3-dihydro-imidazo[4,5-c]quinolin-2-one]	7 nM	15 nM	33 nM
Cc1nn(C)cc1-n1c(=O)n(C)c2cnc3ccc(-c4cncc(OC(F)F)c4)cc3c21 [Example 183, 8-(5-Difluoromethoxy-pyridin-3-yl)-1-(1,3-dimethyl-1H-pyrazol-4-yl)-3-methyl-1,3-dihydro-imidazo[4,5-c]quinolin-2-one]	52 nM	< 3 nM	4 nM
COc1cc(-c2ccc3ncc4c(c3c2)n(-c2cn(C)nc2C)c(=O)n4C)cnc1C [Example 184, 1-(1,3-Dimethyl-1H-pyrazol-4-yl)-8-(5-methoxy-6-methyl-pyridin-3-yl)-3-methyl-1,3-dihydro-imidazo[4,5-c]quinolin-2-one]	16 nM	6 nM	10 nM
CCOc1cc(-c2ccc3ncc4c(c3c2)n(-c2cn(C)nc2C)c(=O)n4C)cnc1COC [Example 197.1, 1-(1,3-Dimethyl-1H-pyrazol-4-yl)-8-(5-ethoxy-6-methoxymethyl-pyridin-3-yl)-3-methyl-1,3-dihydro-imidazo[4,5-c]quinolin-2-one]	40 nM	39 nM	468 nM
